According to article PMC8041284, “Tunable Methacrylamides for Covalent Ligand Directed Release Chemistry” (Journal of the American Chemical Society, 2021):
Where two headings read alike, the source gives them in different places.

Target: BTK (Homo sapiens, UniProt Q06187)
Assay: biochemical
[1] = read-out: BTK inhibition (%), 0.75 uM BTK, […] probe 3l, 15 min preincubation

Chain of BTK (Q06187 402-655 limits assumed): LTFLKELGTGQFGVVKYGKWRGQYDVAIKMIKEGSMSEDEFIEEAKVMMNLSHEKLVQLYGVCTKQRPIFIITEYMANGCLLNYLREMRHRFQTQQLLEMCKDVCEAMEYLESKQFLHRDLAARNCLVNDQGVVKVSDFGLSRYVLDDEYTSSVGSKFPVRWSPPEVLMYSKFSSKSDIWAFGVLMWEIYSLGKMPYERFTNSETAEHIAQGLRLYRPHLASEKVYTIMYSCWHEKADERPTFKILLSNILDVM

Row | inhibition at 10 µM [1] | inhibition at 10 µM (read-out: BTK inhibition (%)) | Compound
1 | -75.9% |  | COc1cccc(-c2ccc(NC(=O)C3=C(C(=O)O)CCC3)c(F)c2)c1 [PCM-0215523]
2 | 41.4% |  | CCN1CCN(Cc2ccc(-c3cc4c(N[C@H](C)c5ccccc5)ncnc4[nH]3)cc2)CC1 [PCM-0214628]
3 | 85.7% |  | Oc1cc(O)c2c(c1)OC(c1ccc(O)c(O)c1)C(OC1(c3ccc(O)c(O)c3)Oc3cc(O)cc(O)c3C(O)C1O)C2 (centres unmarked) [PCM-0215931]
4 | 87.6% |  | C#Cc1cccc(Nc2ncnc3cc(OC)c(OCCCCCCC(=O)NO)cc23)c1 [PCM-0095078]
5 | 42% |  | Nc1ncnc2c1ncn2[C@@H]1O[C@H](CO)C[C@H]1O [PCM-0101885]
6 | -28.8% |  | O=C(CBr)c1ccc(O)cc1 [PCM-0214871]
7 | -4.7% |  | CC(C)c1nc(N(C)S(C)(=O)=O)nc(-c2ccc(F)cc2)c1/C=C/[C@@H](O)C[C@@H](O)CC(=O)O [PCM-0090418]
8 | -19.5% |  | CC1(C)S[C@@H]2[C@H](NC(=O)[C@H](NC(=O)N3CCN(S(C)(=O)=O)C3=O)c3ccccc3)C(=O)N2[C@H]1C(=O)O [PCM-0214758]
9 | 84.9% |  | C=CC(=O)N1CCN(C(=O)CNc2cc(I)c(Cl)cc2O)CC1 [PCM-0215367]
10 | -13.9% |  | C/C(=N\NC(=S)N1CCC1)c1ccccn1 [PCM-0095797]
11 | -13.2% |  | COC(=O)c1cc(OC)c(OC)c(OC)c1 [PCM-0215033]
12 | 6.9% |  | Cc1cc(Nc2cc(N)ncn2)c(=O)n2c1C(=O)NC21CCCCC1 [PCM-0203357]
13 | 10.9% |  | O=C1C[C@@H](c2ccc(O[C@@H]3O[C@H](CO)[C@@H](O)[C@H](O)[C@H]3O)cc2)Oc2cc(O)ccc21 [PCM-0214980]
14 | 85.5% |  | CCS(=O)(=O)N1CCN(c2ccc(Nc3ncc(C(N)=O)c(NC4CC4)n3)cc2)CC1 [PCM-0215389]
15 | -22.8% |  | OC[C@@H](O)CN1CCN(c2ccccc2)CC1 [PCM-0214752]
16 | -10% |  | NCCCC[C@@H]1NC(=O)[C@@H](Cc2ccc(O)cc2)NC(=O)[C@H](CC(=O)O)NC(=O)CNC(=O)[C@H](CCCN=C(N)N)NC1=O [PCM-0215492]
17 | -9.3% |  | O=C1CCc2ccccc2O1 [PCM-0216624]
18 | -1.6% |  | Cc1cccc(Nc2nc(-c3ccncc3)cs2)c1 [PCM-0094960]
19 | 0.8% |  | CN1CCc2c(c3ccccc3n2Cc2ccc(C(=O)NO)cc2)C1 [PCM-0095487]
20 | 15.9% |  | CNC(=O)Nc1ccc(-c2nc(N3CC4CCC(C3)O4)c3cnn(C4CCC5(CC4)OCCO5)c3n2)cc1 [PCM-0095327]
21 | -21.6% |  | C[C@H]1c2cccc(O)c2C(O)=C2C(=O)[C@]3(O)C(O)=C(C(N)=O)C(=O)[C@@H](N(C)C)[C@@H]3[C@@H](O)[C@@H]21 [PCM-0215985]
22 | -8.6% |  | Cc1ccc(N(CC2=NCCN2)c2cccc(O)c2)cc1 [PCM-0065435]
23 | 17% |  | Cc1ccc(NCCCc2ccccc2)c(N)c1 [PCM-0095790]

Row | inhibition at 10 µM [1] | inhibition at 10 µM (read-out: BTK inhibition (%)) | Compound
24 | -2.3% |  | C[C@@H](O)[C@H]1C(=O)N2C(C(=O)O)=C([C@H]3CCCO3)S[C@H]12 [PCM-0215154]
25 | -13.6% |  | NC(=O)c1ccc[n+]([C@@H]2O[C@H](COP(=O)([O-])OP(=O)(O)OC[C@H]3O[C@@H](n4cnc5c(N)ncnc54)[C@H](O)[C@@H]3O)[C@@H](O)[C@H]2O)c1 [PCM-0090146]
26 | -12.4% |  | CO[C@H]1C[C@@H]2CC[C@@H](C)[C@@](O)(O2)C(=O)C(=O)N2CCCC[C@H]2C(=O)O[C@H]([C@H](C)C[C@@H]2CC[C@@H](OCCO)[C@H](OC)C2)CC(=O)[C@H](C)/C=C(\C)[C@@H](O)[C@@H](OC)C(=O)[C@H](C)C[C@H](C)/C=C/C=C/C=C/1C [PCM-0214563]
27 | -30.3% |  | Cn1c(=O)c(Oc2ccc(F)cc2F)cc2cnc(NC(CCO)CCO)nc21 [PCM-0215718]
28 | -14.5% |  | CC(C)(O)CNc1ncc(-c2ccnc(Nc3ccnc(Cl)c3)n2)c(CC2CC2)n1 [PCM-0215614]
29 | -5.5% |  | O=C(O)Cc1ccc2c(c1)C(=O)c1ccccc1CO2 [PCM-0216047]
30 | 19.3% |  | CCCC(CCC)C(N)=O [PCM-0215111]
31 | 9% |  | COc1ccc(Cl)cc1NC(=O)Nc1cc(C)nc2ccccc12 [PCM-0095597]
32 | 15.6% |  | CCC(C)(Oc1ccc(C2(c3ccc(OC(C)(CC)C(=O)O)cc3)CCCCC2)cc1)C(=O)O (centres unmarked) [PCM-0095329]
33 | 23.2% |  | Cc1ccc(C(C)C)c(O)c1 [PCM-0215949]
34 |  | 27.8% | Oc1ccc(-c2c(-c3ccccc3)nn3c(C(F)(F)F)cc(C(F)(F)F)nc23)cc1 [PCM-0216048]
35 | 7.8% |  | CO/N=C(\C(=O)N[C@@H]1C(=O)N2C(C(=O)O)=CCS[C@H]12)c1csc(N)n1 [PCM-0215091]
36 | -2.3% |  | COC(=O)C1=C(C)NC(C)=C(C(=O)OC(C)C)C1c1cccc2nonc12 (centres unmarked) [PCM-0086297]
37 | -15.9% |  | CCCCC(=O)O[C@]1(C(=O)CO)[C@@H](C)C[C@H]2[C@@H]3CCC4=CC(=O)C=C[C@]4(C)[C@@]3(F)[C@@H](O)C[C@@]21C [PCM-0095140]
38 | -11.7% |  | Cc1cn([C@H]2C[C@H](O)[C@@H](CO)O2)c(=O)[nH]c1=O [PCM-0215065]
39 | -5.4% |  | Nc1nc(-c2nn(Cc3ccccc3F)c3ncccc23)ncc1C1CC1 [PCM-0215570]
40 | 87.6% |  | CCn1c(=O)c(-c2ccc(Cl)cc2Cl)cc2cnc(Nc3ccc(N4CCNCC4)c(F)c3)nc21 [PCM-0215684]
41 | 4.8% |  | COc1cc2nccc(Oc3ccc(NC(=O)Nc4ccc(F)cc4F)c(F)c3)c2cc1OC [PCM-0094996]
42 | 10.8% |  | CCOC(=O)C1=C(C)NC(C)=C(C(=O)OCC)C1 [PCM-0216569]
43 | -11.6% |  | CC(C)(NS(=O)(=O)c1ccc2c(Cl)cnc(N=C(N)N)c2c1)C(=O)O [PCM-0215778]
44 | 0.8% |  | O=c1[nH]nc2c3c(cccc13)NC(CN1Cc3ccccc3C1)=N2 [PCM-0215799]
45 | 45.5% |  | CN1CCC(CNc2ccc3ncc(-c4cccc(OC(F)(F)F)c4)n3n2)CC1 [PCM-0095238]
46 | -41.4% |  | O=C(O)CCc1ccc(NCc2cccc(Oc3ccccc3)c2)cc1 [PCM-0065313]

Row | inhibition at 10 µM [1] | inhibition at 10 µM (read-out: BTK inhibition (%)) | Compound
47 | -14% |  | NC(CO)C(=O)NNCc1ccc(O)c(O)c1O (centres unmarked) [PCM-0064697]
48 | -12.5% |  | O=S(=O)(O)Oc1ccc(C(c2ccc(OS(=O)(=O)O)cc2)c2ccccn2)cc1 [PCM-0095575]
49 | 25.7% |  | O=C(O)Cc1ccc(O)cc1 [PCM-0215121]
50 | 8.6% |  | CC(C)C[C@H](NC(=O)[C@H](Cc1ccccc1)NC(=O)c1cnccn1)B(O)O [PCM-0094909]
51 | 5.5% |  | Cn1c2ccccc2c2c3c(c4c5ccccc5n(CCC#N)c4c21)CNC3=O [PCM-0215344]
52 | 9.3% |  | CC1(C)C=C(CN2C/C(=C\c3ccc(F)cc3)C(=O)/C(=C/c3ccc(F)cc3)C2)C(C)(C)N1O [PCM-0095780]
53 | 7% |  | COc1ccc(C[C@@H](C)NC[C@H](O)c2ccc(O)c(NC=O)c2)cc1 [PCM-0086341]
54 | 42% |  | Cc1c(C(=O)NN2CCCCC2)nn(-c2ccc(Cl)cc2Cl)c1-c1ccc(Cl)cc1 [PCM-0095470]
55 | -45.6% |  | CC(C)=CC(O)C/C(C)=C/COc1c2ccoc2cc2oc(=O)ccc12 (centres unmarked) [PCM-0216460]
56 | 1.6% |  | COc1cc2nc(N(C)CCCNC(=O)C3CCCO3)nc(N)c2cc1OC (centres unmarked) [PCM-0064661]
57 | -35.7% |  | Nc1nc(N)c2nc(-c3cccc(O)c3)cnc2n1 [PCM-0095537]
58 | 53.7% |  | CCOc1nc2cccc(C(=O)OC(C)OC(=O)OC3CCCCC3)c2n1Cc1ccc(-c2ccccc2-c2nn[nH]n2)cc1 (centres unmarked) [PCM-0090385]
59 | 0.8% |  | COc1ccc(-c2coc3cc(O)ccc3c2=O)cc1 [PCM-0087244]
60 | 85.6% |  | COC1=CC(=O)c2ccccc2C1=O [PCM-0214886]
61 | 14.8% |  | Clc1ccc2nsnc2c1NC1=NCCN1 [PCM-0065635]
62 | -8.6% |  | CC(C)=CCC[C@](C)(O[C@@H]1O[C@H](CO)[C@@H](O)[C@H](O)[C@H]1O)[C@H]1CC[C@]2(C)[C@@H]1[C@H](O)C[C@@H]1[C@@]3(C)CC[C@H](O)C(C)(C)[C@@H]3[C@@H](O[C@@H]3O[C@H](CO)[C@@H](O)[C@H](O)[C@H]3O[C@@H]3O[C@@H](C)[C@H](O)[C@@H](O)[C@H]3O)C[C@]12C [PCM-0214989]
63 | -6.2% |  | COc1cc(/C=C/C(=O)OC[C@H]2O[C@H](O[C@]3(CO)O[C@H](CO)[C@@H](O)[C@@H]3OC(=O)/C=C/c3cc(OC)c(O)c(OC)c3)[C@H](O)[C@@H](O)[C@@H]2O)cc(OC)c1O [PCM-0216306]
64 | -9% |  | Cc1cccc(CC(=O)N2CCc3c2ccc(-c2cn(C)c4ncnc(N)c24)c3F)n1 [PCM-0095729]
65 | 10.8% |  | COc1cc2c(cc1O)[C@@H](Cc1ccc(O)c(Oc3ccc(C[C@@H]4c5cc(OC)c(OC)cc5CCN4C)cc3)c1)N(C)CC2 [PCM-0216427]
66 | 2.1% |  | CN([C@@H](Cc1ccc(OS(=O)(=O)c2cccc3cnccc23)cc1)C(=O)N1CCN(c2ccccc2)CC1)S(=O)(=O)c1cccc2cnccc12 [PCM-0215309]
67 | 50.3% |  | CC(C)[C@H](CO)Nc1nc(Nc2cccc(Cl)c2)c2ncn(C(C)C)c2n1 [PCM-0215464]
68 | 10.2% |  | Cc1ccc2nc(NC(=O)CSc3nc4c(c(=O)n3-c3ccccc3)SCC4)sc2c1 [PCM-0215324]

Row | Compound | inhibition at 10 µM [1] | inhibition at 10 µM (read-out: BTK inhibition (%))
69 | CC(=O)O[C@H]1CC[C@H]2[C@@H]3CCc4cc(O)ccc4[C@H]3CC[C@]12C [PCM-0216021] | 3.1% | 
70 | COC(=O)CC[C@@H](C)[C@H]1CC[C@H]2[C@@H]3[C@H](O)C[C@@H]4C[C@H](O)CC[C@]4(C)[C@H]3C[C@H](O)[C@]12C [PCM-0215088] | -4.7% | 
71 | C[C@H](CC[C@@H](O[C@@H]1O[C@H](CO[C@@H]2O[C@H](CO)[C@@H](O)[C@H](O)[C@H]2O)[C@@H](O)[C@H](O)[C@H]1O[C@@H]1O[C@H](CO)[C@@H](O)[C@H](O)[C@H]1O)C(C)(C)O)[C@H]1CC[C@@]2(C)[C@@H]3CC=C4[C@@H](CC[C@H](O[C@@H]5O[C@H](CO[C@@H]6O[C@H](CO)[C@@H](O)[C@H](O)[C@H]6O)[C@@H](O)[C@H](O)[C@H]5O)C4(C)C)[C@]3(C)[C@H](O)C[C@]12C [PCM-0214952] | -2.3% | 
